{"source": "patent US7915050B2", "about": "“Regulatory genes for plant differentiation and growth, and use of the same” (National University Corporation Nagoya University, priority 2005, dated 2011)", "key": {"GID1 [1]": {"target": "T1, GID1 (Oryza sativa subsp. japonica, UniProt Q6L545)", "T1 construct": "GST (tag of vector pGEX-4T) (N); made in house", "T1 sequence (Q6L545 whole entry)": "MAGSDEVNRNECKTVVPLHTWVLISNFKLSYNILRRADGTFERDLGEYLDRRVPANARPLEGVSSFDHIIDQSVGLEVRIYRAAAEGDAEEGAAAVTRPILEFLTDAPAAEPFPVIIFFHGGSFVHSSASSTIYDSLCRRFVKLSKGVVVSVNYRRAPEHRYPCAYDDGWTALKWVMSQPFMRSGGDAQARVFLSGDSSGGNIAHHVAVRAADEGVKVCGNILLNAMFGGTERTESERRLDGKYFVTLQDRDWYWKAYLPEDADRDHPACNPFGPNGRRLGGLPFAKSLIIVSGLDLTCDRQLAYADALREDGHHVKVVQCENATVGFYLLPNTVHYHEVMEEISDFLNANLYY", "assay": "Competition of various GAs in the binding of the 3H-GA4 derivative to GID1 protein", "parameters": "species or system rice", "conditions": "for IC50: competition with tritiated GA4 derivative for binding to recombinant GID1, read-out: IC50 (concentration required for 50% inhibition); for Rel % (relative value): relative competition, GA4 given as 100", "method": "(§1) In the gibberellin-binding assay, [1,2,16,17-^3H4]16,17-dihydro-GA4 was used as a labeled GA4. In vitro GA-binding assays were carried out using previous methods with some modifications (Nakajima, M. et al., Biochem. Biophys. Res. Comm. 241, 782-786 (1997)). The purified recombinant GID1 protein (400 pmol) was dissolved in 300 μl of binding buffer [20 mM Tris-HCl (pH 7.6), 5 mM 2-mercaptoethanol, and 0.1 M NaCl], and incubated with 100 μl of ^3H4-16,17-dihydroGA4 (6 pmol) for two hours at 25° C., either in the absence of non-labeled GA4 (total binding) or in the presence of 833-fold excess non-labeled GA4 (total non-specific binding). Then, 0.1 ml of the reaction mixture was loaded onto a NAP-5 column (Amersham Biosciences, Piscataway, N.J.). The eluate of the binding buffer (0.6 ml) was discarded, the subsequent eluate (0.2 ml) was collected, and the radioactivity was measured. The specific binding activity, reflecting the number of displaceable GA binding sites, was calculated by subtracting the amount of nonspecific binding from the amount of total binding. The same as above can also be carried out for other GAs.\nThus, it was postulated that, like GID2, GID1 is involved in the degradation of SLR1, or that GID1 functions upstream of SLR1 in GA signaling. […] Based on this phenotypic characteristic of gid1, it was predicted that GID1 was involved in GA perception. To verify this possibility, the interactions between GID1 and radioisotope-labeled GA was directly examined using non-equilibrium gel filtration (Nakajima, M. et al., Biochem. Biophys. Res. Comm. 241, 782-786 (1997)). […] Next, ligand specificity of GID1 was tested by using competition between the tritiated GA4 derivative and various GAs. The concentration of each GA that is required for a 50% inhibition (IC50) of the binding of the tritiated GA4 derivative to GID1 is shown in Table 1. […] The IC50 value for each of these GAs was well consistent with their physiological activity."}, "AtGID1a": {"target": "T2, AtGID1a (Arabidopsis thaliana, UniProt Q9MAA7)", "T2 construct": "made in house; host or cells: E. coli", "T2 sequence (Q9MAA7 1-345)": "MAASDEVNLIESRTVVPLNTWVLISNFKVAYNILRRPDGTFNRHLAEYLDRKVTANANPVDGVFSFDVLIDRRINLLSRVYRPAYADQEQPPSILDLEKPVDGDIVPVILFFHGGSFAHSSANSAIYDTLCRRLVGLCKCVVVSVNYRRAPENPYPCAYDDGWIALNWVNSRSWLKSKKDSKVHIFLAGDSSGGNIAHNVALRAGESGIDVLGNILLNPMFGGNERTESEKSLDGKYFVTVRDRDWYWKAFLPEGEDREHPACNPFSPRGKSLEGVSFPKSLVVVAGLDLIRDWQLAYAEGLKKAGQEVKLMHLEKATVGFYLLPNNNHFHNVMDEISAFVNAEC", "assay": "Competitive ability of GA in AtGID1-GA binding (AtGID1a)", "conditions": "for IC50: tracer 15 nM, mean of at least two measurements", "method": "as §1\n(§2) Specifically, the coding region of the AtGID1 gene was amplified by PCR using specific primers designed based on the full-length cDNA sequence of the AtGID1 gene and having appropriate restriction sites at each end. After confirmation by sequence analysis, each cDNA fragment was ligated into pET32a vector (Novagen/Merck Biosciences, Madison, Wis., USA) or pGEX-4T-2 vector (Amersham Biosciences, Piscataway, N.J., USA; currently, a part of GE Healthcare). The production of recombinant proteins was confirmed by SDS-PAGE; vector cassettes were used as negative controls. GA binding assays were carried out similarly as described above using [1,2,16,17-^3H4]-16,17-dihydro-GA4 (4.55 TBq/mmol), which was custom-made by DuPont/NEN (Boston, Mass., USA). Non-labeled GA4 (1.25 mM) was used to measure non-specific binding. Saturation experiments for the kinetic analysis were carried out using ten concentrations of 16,17-dihydro-GA4 within the range of 25 to 1,500 nM. Competition assays were performed using [1,2,16,17-^3H4]-16,17-dihydro-GA4 at 15 nM and five concentrations of the non-labeled competitor. Recombinant RGA and GAI proteins were prepared using pET32a by a previously described method.\n(§3) The ligand selectivity of each AtGID1 was examined by observing the competitive inhibition, by the addition of GA to the assay mixtures, of the binding between the recombinant proteins and tritiated 16,17-dihydro-GA4 (Table 2). The ligand selectivity was evaluated using the concentration of GA that inhibits 50% of the tracer (15 nM) binding (IC50 value)."}, "AtGID1b": {"target": "T3, AtGID1b (Arabidopsis thaliana, UniProt Q9LYC1)", "T3 construct": "made in house; host or cells: E. coli", "T3 sequence (Q9LYC1 1-358)": "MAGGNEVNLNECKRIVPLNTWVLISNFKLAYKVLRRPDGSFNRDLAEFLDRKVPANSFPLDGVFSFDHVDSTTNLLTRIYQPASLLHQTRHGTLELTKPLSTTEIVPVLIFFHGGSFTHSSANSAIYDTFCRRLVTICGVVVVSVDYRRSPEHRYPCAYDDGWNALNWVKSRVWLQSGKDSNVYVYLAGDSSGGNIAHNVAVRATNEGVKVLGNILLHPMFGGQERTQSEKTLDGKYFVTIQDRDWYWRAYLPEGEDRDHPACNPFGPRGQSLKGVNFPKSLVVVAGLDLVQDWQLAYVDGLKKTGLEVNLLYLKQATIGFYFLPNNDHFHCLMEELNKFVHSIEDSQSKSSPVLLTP", "assay": "Competitive ability of GA in AtGID1-GA binding (AtGID1b)", "conditions": "for IC50: tracer 15 nM, mean of at least two measurements", "method": "as §1, §2, §3"}, "AtGID1c": {"target": "T4, AtGID1c (Arabidopsis thaliana, UniProt Q940G6)", "T4 construct": "made in house; host or cells: E. coli", "T4 sequence (Q940G6 1-344)": "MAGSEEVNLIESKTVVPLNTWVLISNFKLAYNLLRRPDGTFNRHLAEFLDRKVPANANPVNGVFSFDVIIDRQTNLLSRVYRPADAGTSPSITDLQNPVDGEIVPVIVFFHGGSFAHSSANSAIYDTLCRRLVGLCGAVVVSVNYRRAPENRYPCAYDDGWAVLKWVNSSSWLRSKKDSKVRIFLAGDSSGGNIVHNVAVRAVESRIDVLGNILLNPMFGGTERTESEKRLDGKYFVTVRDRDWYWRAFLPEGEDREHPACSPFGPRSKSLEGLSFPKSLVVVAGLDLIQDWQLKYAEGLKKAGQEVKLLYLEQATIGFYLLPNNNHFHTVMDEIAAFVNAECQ", "assay": "Competitive ability of GA in AtGID1-GA binding (AtGID1c)", "conditions": "for IC50: tracer 15 nM, mean of at least two measurements", "method": "as §1, §2, §3"}, "GID1 [2]": {"target": "T1, GID1", "assay": "Saturation/Scatchard and association/dissociation analysis of GA binding to recombinant GID1", "parameters": "species or system rice", "method": "Panel a) depicts the saturability for the GA binding of GID1. […] Bar represents the standard deviation (n=3). Panel b) depicts the results of a Scatchard plot for the data of binding shown in a. The Kd value was calculated (correlation coefficient R^2=0.96) from t three independent experimental results. Panel c) depicts the ^3H-GA association/dissociation rate to GID1. […] Bar represents the standard deviation (n=3). […] Upper panel, none of three recombinant proteins of mutant GID1s (GID1-1, 1-2, and 1-3) corresponding to the three gid1 alleles interacted with GA4. […] Bar represents the standard deviation (n=3). Bottom panel, Coomassie brilliant blue stain of the recombinant proteins used in this experiment. Dot represents GID or tag proteins in the SDS-PAGE profile. In this experiment, almost equal amounts of proteins were used for each (80 pmol). Panel e) depicts the gross morphologies of a GID1-overexpressing plant (Actin1 promoter-GID1, right) and wild type plant (control, left) three months after seeding. Bar=50 cm. f) dose-dependent GA response in the elongation of the second leaf sheath of GID1overexpressing plant (closed triangle) and wild type (closed circle). Bar represents the standard deviation (n=5).\nIn the gibberellin-binding assay, [1,2,16,17-^3H4]16,17-dihydro-GA4 was used as a labeled GA4. In vitro GA-binding assays were carried out using previous methods with some modifications (Nakajima, M. et al., Biochem. Biophys. Res. Comm. 241, 782-786 (1997)). […] The eluate of the binding buffer (0.6 ml) was discarded, the subsequent eluate (0.2 ml) was collected, and the radioactivity was measured. The specific binding activity, reflecting the number of displaceable GA binding sites, was calculated by subtracting the amount of nonspecific binding from the amount of total binding. […]\nNext, the kinetics of the binding of GID1 to GA was analyzed. To calculate the Kd value of GID1 to GA, the saturability of GA binding was measured using various concentrations of GA4 derivative (FIG. 4a). […]"}}, "note": "Read-outs that look alike come from different tables or passages of the source."}
{"substance": "methyl ester of GA4 [GA4-Me]", "values": [{"measurement": "IC50", "setting": "GID1 [1]", "result": 30, "unit": "µM"}, {"measurement": "Rel % (relative value)", "setting": "GID1 [1]", "result": "(0.6) %"}, {"measurement": "relative value, taking the value for GA4 as 100", "setting": "AtGID1a", "result": "(0.1) %"}, {"measurement": "IC50", "setting": "AtGID1a", "result": 300, "unit": "µM"}, {"measurement": "relative value, taking the value for GA4 as 100", "setting": "AtGID1b", "result": "(0.3) %"}, {"measurement": "IC50", "setting": "AtGID1b", "result": 9, "unit": "µM"}, {"measurement": "relative value, taking the value for GA4 as 100", "setting": "AtGID1c", "result": "(0.3) %"}, {"measurement": "IC50", "setting": "AtGID1c", "result": 90, "unit": "µM"}]}
{"substance": "[1,2,16,17-^3H4]16,17-dihydro-GA4 [^3H4-16,17-dihydroGA4]", "values": [{"measurement": "half-time required for association/dissociation", "setting": "GID1 [2]", "result": "within several minutes"}, {"measurement": "half-time required for association/dissociation", "setting": "GID1 [2]; listed as GA4 derivative", "result": "several minutes or less"}]}
{"substance": "3-epi-GA4", "values": [{"measurement": "IC50", "setting": "GID1 [1]", "result": "> 200", "unit": "µM"}, {"measurement": "Rel % (relative value)", "setting": "GID1 [1]", "result": "(<0.1) %"}, {"measurement": "relative value, taking the value for GA4 as 100", "setting": "AtGID1a", "result": "(<0.1) %"}, {"measurement": "IC50", "setting": "AtGID1a", "result": "> 300", "unit": "µM"}, {"measurement": "relative value, taking the value for GA4 as 100", "setting": "AtGID1b", "result": "(<0.1) %"}, {"measurement": "IC50", "setting": "AtGID1b", "result": 100, "unit": "µM"}, {"measurement": "relative value, taking the value for GA4 as 100", "setting": "AtGID1c", "result": "(<0.1) %"}, {"measurement": "IC50", "setting": "AtGID1c", "result": "> 300", "unit": "µM"}]}
